Source: patent US20090286834A1, “Pyridine Analogues VI” (AstraZeneca AB, priority 2006, published 2009)

Molecular target: T1, P2Y12 receptor (Homo sapiens, UniProt Q9H244)
T1 construct: expressed in transfected cells; host or cells: CHO cells (membranes)
Assay: Functional inhibition of 2-Me-S-ADP induced P2Y12 signalling (35S-GTPγS, membranes from P2Y12 transfected CHO-cells)
Assay type: biochemical
Details: EC80 concentration of agonist 2-methyl-thio-adenosine diphosphate, 30° C. for 45 min
Experimental: Functional inhibition of the P2Y12 receptor can be measured by in vitro assays using cell membranes from P2Y12 transfected CHO-cells, the methodology is indicated below.
Functional inhibition of 2-Me-S-ADP induced P2Y12 signalling: 5 μg of membranes were diluted in 200 μl of 200 mM NaCl, 1 mM MgCl2, 50 mM HEPES (pH 7.4), 0.01% BSA, 30 μg/ml saponin and 10 μM GDP. To this was added an EC80 concentration of agonist (2-methyl-thio-adenosine diphosphate), the required concentration of test compound and 0.1 μCi ^35S-GTPγS. The reaction was allowed to proceed at 30° C. for 45 min. Samples were then transferred on to GF/B filters using a cell harvester and washed is with wash buffer (50 mM Tris (pH 7.4), 5 mM MgCl2, 50 mM NaCl). Filters were then covered with scintilant and counted for the amount of ^35S-GTPγS retained by the filter. Maximum activity was that determined in the presence of the agonist and minimum activity in the absence of the agonist following subtraction of the value determined for non-specific activity. The effect of compounds at various concentrations was plotted according to the equation
y=A+((B−A)/(1+((C/x)̂D)))
and IC50 estimated where A is the bottom plateau of the curve i.e. the final minimum y value B is the top of the plateau of the curve i.e. the final maximum y value C is the x value at the middle of the curve. […]

T1 sequence (Q9H244 whole entry): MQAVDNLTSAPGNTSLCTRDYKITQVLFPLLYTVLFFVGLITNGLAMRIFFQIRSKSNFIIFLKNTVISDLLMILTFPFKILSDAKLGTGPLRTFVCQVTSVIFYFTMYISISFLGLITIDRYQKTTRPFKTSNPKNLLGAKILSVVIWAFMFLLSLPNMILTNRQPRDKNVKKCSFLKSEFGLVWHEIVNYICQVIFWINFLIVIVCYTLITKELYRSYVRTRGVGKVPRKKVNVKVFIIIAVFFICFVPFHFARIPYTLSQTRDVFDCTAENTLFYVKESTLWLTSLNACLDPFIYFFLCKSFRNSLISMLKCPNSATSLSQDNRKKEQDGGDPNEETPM

IC50: 810 nM
SMILES: CCOC(=O)c1cc(C#N)c(NC2CCC(C(=O)NS(=O)(=O)c3ccc(Cl)s3)C2)nc1C(F)(F)F (stereo not shown) [Example 3, Ethyl 6-{[3-({[(5-chloro-2-thienyl)sulfonyl]amino}carbonyl)cyclopentyl]amino}-5-cyano-2-(trifluoromethyl)nicotinate]
